For assay [1], the target named is Hepatocyte nuclear factor 4-alpha (Homo sapiens, UniProt P41235). The assay is classed as functional, cell-based.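 Note: biochemical luminescence-based dose-response counterscreen measuring inhibition of HNF4 dimerization, run alongside a screen for blockers of ABHD5–perilipin-5 interaction; split luciferase complementation of HNF4 fusion proteins in cell lysate measuring dimerization.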
Assay [2] has as its target Genome polyprotein (dengue virus type 2, UniProt P29990). The assay is described as follows: Dengue-2 NS5 methyltransferase inhibitors, primary screen, biochemical, confirmation dose response (AID 588689). Format: functional.
The target of assay [3] is T1, Protein RecA (Mycobacterium tuberculosis, UniProt P9WHJ3).
T1 sequence (P9WHJ3 whole entry): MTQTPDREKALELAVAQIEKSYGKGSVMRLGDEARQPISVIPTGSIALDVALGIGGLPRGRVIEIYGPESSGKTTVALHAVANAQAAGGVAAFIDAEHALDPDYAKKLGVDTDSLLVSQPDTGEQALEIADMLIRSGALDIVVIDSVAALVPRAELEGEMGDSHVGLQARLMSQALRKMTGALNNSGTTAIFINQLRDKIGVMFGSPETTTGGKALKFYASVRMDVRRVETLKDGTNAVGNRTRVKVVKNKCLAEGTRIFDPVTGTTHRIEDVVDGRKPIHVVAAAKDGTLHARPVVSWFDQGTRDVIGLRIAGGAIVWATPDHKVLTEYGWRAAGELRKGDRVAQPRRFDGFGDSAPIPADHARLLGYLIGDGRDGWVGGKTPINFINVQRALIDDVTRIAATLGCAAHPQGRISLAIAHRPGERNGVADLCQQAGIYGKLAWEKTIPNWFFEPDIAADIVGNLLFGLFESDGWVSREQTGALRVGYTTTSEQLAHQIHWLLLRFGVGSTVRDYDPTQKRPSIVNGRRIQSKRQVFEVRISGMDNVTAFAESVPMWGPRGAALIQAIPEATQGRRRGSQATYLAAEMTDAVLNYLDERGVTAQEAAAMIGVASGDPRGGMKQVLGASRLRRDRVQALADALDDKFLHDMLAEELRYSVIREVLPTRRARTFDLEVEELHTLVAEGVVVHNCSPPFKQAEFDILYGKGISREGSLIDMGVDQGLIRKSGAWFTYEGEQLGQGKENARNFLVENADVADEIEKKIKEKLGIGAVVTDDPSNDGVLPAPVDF
The assay can be described thus: Fluorescence Cell-Free Homogeneous Dose Retest to Identify Inhibitors of RecA-Intein Splicing Activity. [Related pubchem assays (depositor defined):AID2097, AID2223, AID489010, AID492950]. The assay is classed as functional.

The subject of assay [4] is Vero. The assay can be described thus: Vero cell cytotoxicity, cytotoxicity control for flavivirus capping enzyme inhibitors (AID 588742). The assay is classed as functional. To be noted: Chlorocebus sabaeus.
Assay [5] concerns the target T2, Replicative DNA helicase DnaB (Mycobacterium tuberculosis, UniProt P9WMR3).
T2 sequence (P9WMR3 whole entry): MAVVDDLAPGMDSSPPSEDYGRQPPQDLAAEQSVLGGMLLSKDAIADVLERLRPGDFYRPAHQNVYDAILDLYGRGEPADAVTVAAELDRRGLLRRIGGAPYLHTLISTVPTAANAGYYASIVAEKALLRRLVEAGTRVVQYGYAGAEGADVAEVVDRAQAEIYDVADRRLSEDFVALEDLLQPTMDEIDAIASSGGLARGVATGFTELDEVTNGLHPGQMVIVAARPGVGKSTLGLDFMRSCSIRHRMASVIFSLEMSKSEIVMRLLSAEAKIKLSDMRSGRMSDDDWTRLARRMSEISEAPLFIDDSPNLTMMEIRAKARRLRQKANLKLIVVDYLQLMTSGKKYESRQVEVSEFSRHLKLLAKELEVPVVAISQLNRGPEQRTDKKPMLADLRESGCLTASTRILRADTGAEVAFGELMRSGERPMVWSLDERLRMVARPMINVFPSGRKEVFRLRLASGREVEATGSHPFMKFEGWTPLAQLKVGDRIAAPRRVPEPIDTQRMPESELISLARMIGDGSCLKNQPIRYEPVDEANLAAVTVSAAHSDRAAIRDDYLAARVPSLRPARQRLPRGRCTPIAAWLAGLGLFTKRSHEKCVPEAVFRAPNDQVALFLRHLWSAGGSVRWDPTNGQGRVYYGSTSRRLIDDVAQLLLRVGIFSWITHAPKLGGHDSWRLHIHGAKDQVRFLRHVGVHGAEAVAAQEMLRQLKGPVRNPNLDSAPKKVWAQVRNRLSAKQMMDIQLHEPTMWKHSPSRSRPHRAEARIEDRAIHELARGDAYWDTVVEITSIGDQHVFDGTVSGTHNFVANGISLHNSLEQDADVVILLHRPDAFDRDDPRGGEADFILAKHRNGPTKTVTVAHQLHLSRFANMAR
The assay is described as follows: DnaB intein splicing inhibitors, dose response, biochemical, cell-free fluorescence (AID 449749). Format: functional.

The target in assay [6] is T3, DNA repair and recombination protein RAD54-like (Homo sapiens, UniProt Q92698).
T3 sequence (Q92698 whole entry): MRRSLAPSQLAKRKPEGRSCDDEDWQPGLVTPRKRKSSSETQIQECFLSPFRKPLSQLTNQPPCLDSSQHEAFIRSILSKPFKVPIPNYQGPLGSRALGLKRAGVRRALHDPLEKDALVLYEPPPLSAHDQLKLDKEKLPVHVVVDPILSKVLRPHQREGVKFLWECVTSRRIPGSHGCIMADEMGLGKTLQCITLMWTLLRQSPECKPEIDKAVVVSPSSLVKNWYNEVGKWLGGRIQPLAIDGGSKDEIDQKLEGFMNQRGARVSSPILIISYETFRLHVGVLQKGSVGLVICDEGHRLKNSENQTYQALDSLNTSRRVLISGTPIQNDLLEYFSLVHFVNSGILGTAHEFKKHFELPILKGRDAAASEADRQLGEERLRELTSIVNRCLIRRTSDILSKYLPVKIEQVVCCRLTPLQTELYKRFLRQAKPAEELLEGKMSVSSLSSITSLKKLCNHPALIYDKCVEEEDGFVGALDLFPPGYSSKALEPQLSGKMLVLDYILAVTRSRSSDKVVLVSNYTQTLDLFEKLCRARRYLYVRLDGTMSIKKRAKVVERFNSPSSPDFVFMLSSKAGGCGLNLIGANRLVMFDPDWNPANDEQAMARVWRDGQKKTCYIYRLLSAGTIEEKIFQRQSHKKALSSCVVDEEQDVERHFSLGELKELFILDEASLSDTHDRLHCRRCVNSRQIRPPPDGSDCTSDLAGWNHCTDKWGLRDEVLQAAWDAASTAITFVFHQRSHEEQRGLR
The assay can be described thus: inhibitors of human RAD54 branch migration, confirmation, biochemical, fluorescence, cherry-picked samples, dose series (AID 651657). Format: functional.

Assay [7] is described as follows: MDA-MB-231 cell growth inhibition, dose response, cytotoxicity control for RAD54 inhibitor project, CellTiter-Glo luminescence, cherry-pick (AID 651692). The assay is classed as functional, cell-based. (ATP-based viability assays read luminescence as a measure of living cells.)
Assay [8] in a line: inhibitors of intracellular T. cruzi replication, confirmation, NIH3T3 host cells, beta-gal luminescence (AID 2044).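 Note: intracellular parasites grown in NIH/3T3 mouse fibroblasts as host cells; luminescent beta-galactosidase reporter signal from transgenic T. cruzi replicating inside host cells; inhibitors lower the luminescence signal.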 Format: functional, cell-based.
Assay [9] can be described thus: cytotoxicity toward NIH3T3 fibroblasts, dose response, counter-screen, cell-based, ATP luminescence, mouse fibroblasts (AID 2010).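 Note: cells exposed to compound for about 90 hours before reading.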 The assay is classed as functional. In general terms: The purpose of a counterscreen is to sort out artefacts and off-target activity.
The target of assay [10] is Broad substrate specificity ATP-binding cassette transporter ABCG2 (Homo sapiens, UniProt Q9UNQ0). The assay is described as follows: ABCG2 efflux pump inhibitors, dose response, Ig-MXP3 cells, flow cytometry (AID 1690). The assay is classed as functional.
Sequence of Broad substrate specificity ATP-binding cassette transporter ABCG2 (Q9UNQ0 whole entry): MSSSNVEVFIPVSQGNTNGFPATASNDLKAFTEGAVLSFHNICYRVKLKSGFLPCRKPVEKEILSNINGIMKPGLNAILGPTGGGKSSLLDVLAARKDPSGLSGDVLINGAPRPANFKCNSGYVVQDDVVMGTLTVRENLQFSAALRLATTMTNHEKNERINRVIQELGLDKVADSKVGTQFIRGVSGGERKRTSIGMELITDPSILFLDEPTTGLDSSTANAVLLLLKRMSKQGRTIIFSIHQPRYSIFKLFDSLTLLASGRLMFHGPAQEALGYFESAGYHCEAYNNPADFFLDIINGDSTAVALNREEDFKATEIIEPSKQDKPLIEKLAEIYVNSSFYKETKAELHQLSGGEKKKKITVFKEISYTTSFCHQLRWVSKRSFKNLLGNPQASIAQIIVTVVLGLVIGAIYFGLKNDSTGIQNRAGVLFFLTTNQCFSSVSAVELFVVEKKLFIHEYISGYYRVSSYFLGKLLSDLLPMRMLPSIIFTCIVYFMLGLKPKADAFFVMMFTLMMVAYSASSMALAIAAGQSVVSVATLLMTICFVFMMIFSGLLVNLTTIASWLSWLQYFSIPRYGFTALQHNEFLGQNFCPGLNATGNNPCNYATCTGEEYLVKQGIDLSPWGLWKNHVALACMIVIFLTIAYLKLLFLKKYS
In assay [11] the test system is Streptococcus sp. 'group A'. The assay is described as follows: growth inhibition of control SK(-) GAS strain, dose response, counter-screen for streptokinase expression inhibitor project, luminescence, kanamycin, BacTiterGlo, confirmation (AID 1900). Format: functional, organism-based.
For assay [12], the target named is T4, ATP-dependent translocase ABCB1 (Homo sapiens, UniProt P08183). The assay is described as follows: ABCB1 efflux pump inhibitor potency, dose response, Jurkat-DNR cells, JC-1, flow cytometry (AID 1689). Format: functional. A general note: A flow cytometer gives signals particle by particle.
T4 sequence (P08183 whole entry): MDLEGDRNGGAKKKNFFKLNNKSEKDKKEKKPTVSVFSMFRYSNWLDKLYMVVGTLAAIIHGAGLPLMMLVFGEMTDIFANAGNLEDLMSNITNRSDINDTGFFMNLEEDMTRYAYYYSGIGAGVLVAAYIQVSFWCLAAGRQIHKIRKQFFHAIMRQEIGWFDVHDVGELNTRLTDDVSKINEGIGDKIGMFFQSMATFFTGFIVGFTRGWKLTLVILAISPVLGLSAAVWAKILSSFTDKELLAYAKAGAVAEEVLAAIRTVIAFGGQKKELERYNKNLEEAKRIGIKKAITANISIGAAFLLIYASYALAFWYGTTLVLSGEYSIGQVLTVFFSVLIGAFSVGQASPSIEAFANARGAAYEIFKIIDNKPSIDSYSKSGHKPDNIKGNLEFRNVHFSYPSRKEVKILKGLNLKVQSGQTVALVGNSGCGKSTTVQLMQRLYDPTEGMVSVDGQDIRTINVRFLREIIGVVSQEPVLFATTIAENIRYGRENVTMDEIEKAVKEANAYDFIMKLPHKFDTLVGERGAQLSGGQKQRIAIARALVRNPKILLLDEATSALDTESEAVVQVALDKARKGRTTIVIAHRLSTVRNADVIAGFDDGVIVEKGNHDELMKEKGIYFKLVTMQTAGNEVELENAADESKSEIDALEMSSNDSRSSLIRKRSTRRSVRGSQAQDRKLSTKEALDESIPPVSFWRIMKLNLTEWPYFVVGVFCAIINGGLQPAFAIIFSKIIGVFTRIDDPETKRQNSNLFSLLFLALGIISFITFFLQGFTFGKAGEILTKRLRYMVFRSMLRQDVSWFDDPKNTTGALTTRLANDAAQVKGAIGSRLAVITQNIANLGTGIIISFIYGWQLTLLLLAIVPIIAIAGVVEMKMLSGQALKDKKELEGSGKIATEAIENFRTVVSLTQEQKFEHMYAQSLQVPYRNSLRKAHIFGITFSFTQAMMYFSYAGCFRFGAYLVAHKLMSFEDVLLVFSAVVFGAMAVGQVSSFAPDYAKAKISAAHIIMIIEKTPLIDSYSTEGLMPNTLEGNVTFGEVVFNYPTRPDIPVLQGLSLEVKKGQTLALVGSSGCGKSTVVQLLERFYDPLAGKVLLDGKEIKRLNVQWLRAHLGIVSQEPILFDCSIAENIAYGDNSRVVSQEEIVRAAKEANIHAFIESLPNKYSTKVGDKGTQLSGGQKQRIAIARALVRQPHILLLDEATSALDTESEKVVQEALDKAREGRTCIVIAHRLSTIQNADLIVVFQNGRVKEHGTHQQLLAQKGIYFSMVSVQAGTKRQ
Assay [13] concerns the target T5, Streptokinase A (Streptococcus pyogenes serotype M1, UniProt P10520).
T5 sequence (P10520 whole entry): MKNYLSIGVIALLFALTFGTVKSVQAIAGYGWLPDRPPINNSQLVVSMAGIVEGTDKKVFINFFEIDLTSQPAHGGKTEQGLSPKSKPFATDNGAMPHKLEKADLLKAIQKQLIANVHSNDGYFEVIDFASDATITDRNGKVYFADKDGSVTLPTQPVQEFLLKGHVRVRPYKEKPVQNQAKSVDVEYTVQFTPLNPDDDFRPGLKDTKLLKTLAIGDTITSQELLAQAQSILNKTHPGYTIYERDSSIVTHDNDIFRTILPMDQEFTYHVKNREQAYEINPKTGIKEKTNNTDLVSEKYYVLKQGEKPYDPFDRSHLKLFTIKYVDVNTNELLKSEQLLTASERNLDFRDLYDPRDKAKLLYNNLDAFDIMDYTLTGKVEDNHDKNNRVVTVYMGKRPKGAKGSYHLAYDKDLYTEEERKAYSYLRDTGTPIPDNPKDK
The assay can be described thus: S. pyogenes streptokinase expression inhibitors, potency, dose response, plasminogen activation absorbance, OD405 (AID 1914).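 Note: secreted streptokinase activity via plasminogen activation per viability signal from cell pellet.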 Format: functional, Streptococcus pyogenes M1 GAS.

Assay [14] deals with Streptococcus. The assay can be described thus: Group A Streptococcus viability loss, dose response, counter-screen for streptokinase expression inhibitor project, luminescence, BacTiterGlo (AID 1915).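 Note: potency for reduction of bacterial viability or growth.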 The assay is classed as functional, organism-based.
Assay [15] can be described thus: Vero cell cytotoxicity, cytotoxicity control for M. tuberculosis inhibitor project, purified and synthesized samples, set 8 (AID 602431). Format: functional. The following applies: Mycobacterium tuberculosis.
Assay [16] deals with T6, Apoptotic protease-activating factor 1 (Homo sapiens, UniProt O14727).
T6 sequence (O14727 whole entry): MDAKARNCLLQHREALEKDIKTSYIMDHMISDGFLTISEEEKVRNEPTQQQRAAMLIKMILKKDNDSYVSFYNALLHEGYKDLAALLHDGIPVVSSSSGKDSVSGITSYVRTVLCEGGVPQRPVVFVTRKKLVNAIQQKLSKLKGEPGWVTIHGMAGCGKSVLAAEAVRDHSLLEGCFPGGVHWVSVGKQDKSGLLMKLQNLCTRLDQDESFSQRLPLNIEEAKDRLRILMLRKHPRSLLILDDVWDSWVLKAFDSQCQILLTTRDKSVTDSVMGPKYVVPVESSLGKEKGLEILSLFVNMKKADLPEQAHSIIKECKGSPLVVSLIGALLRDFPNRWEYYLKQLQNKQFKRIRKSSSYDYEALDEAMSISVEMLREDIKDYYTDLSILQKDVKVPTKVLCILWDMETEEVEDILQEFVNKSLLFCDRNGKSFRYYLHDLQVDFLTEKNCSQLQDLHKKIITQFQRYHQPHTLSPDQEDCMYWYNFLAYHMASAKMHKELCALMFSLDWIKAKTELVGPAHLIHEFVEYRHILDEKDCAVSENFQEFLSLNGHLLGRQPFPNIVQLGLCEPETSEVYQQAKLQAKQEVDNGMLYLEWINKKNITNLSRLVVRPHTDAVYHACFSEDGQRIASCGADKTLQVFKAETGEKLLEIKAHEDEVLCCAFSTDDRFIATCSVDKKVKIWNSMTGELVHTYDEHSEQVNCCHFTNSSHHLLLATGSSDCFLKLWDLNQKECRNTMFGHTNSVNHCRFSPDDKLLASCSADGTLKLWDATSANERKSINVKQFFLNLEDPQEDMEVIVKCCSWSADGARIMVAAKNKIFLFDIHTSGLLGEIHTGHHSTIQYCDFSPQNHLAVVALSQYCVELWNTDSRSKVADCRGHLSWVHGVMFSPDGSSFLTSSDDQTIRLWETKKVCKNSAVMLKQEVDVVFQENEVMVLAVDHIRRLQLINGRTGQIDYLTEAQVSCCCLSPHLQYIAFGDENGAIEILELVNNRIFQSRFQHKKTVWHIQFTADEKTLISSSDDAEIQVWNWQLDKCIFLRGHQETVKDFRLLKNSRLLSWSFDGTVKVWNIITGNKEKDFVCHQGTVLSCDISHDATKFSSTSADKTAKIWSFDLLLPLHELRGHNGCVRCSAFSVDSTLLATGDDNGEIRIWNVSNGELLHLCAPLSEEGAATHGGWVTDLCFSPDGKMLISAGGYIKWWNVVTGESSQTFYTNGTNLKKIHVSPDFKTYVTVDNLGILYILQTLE
The assay is described as follows: SAR analysis of small molecule Activators of Apaf-1 in a Fluorescent assay. The assay is classed as functional. To be noted: read-out: EC50_Mean.

Assay [17] deals with T4, ATP-dependent translocase ABCB1. The assay is described as follows: ABCG2 efflux pump inhibitor potency, dose response, Ig-MXP3 cells, JC-1, flow cytometry, set 2 (AID 504566).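 Note: flow cytometry median green fluorescence of retained JC-1 dye; potency of efflux pump inhibition measured as rising substrate retention.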 Format: functional. The following applies: read-out: EC50_MICROM_.
Assay [18] has the same target. The assay is described as follows: ABCB1 efflux inhibitor potency, dose response, Jurkat-DNR cells, JC-1, flow cytometry, set 2 (AID 504569).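 Note: potency of pump inhibitors that raise cellular JC-1 green fluorescence up to the nicardipine level.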 To be noted: read-out: EC50_MICROM_. The assay is classed as functional.

The source made the active and inactive calls. Where only a bound is given, the exact number is not on record here.
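Throughout, for EC50 Mean: caspase-3 cleavage of fluorogenic Rh110 DEVD substrate downstream of apoptosome activation.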

Sequence of Hepatocyte nuclear factor 4-alpha (P41235 whole entry, the tested form may be a part): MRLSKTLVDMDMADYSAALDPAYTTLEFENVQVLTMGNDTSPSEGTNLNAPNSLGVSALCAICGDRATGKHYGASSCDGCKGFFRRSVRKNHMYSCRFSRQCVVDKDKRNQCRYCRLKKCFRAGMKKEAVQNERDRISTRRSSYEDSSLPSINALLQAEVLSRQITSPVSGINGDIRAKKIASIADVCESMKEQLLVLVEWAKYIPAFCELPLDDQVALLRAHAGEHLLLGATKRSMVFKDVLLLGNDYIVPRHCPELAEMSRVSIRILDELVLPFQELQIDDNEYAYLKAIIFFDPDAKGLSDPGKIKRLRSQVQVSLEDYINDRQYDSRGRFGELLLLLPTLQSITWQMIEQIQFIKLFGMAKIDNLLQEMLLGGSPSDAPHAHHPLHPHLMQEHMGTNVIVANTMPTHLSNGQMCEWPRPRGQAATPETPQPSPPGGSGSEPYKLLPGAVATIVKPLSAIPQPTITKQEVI
Sequence of Genome polyprotein (P29990 2492-3391 limits assumed): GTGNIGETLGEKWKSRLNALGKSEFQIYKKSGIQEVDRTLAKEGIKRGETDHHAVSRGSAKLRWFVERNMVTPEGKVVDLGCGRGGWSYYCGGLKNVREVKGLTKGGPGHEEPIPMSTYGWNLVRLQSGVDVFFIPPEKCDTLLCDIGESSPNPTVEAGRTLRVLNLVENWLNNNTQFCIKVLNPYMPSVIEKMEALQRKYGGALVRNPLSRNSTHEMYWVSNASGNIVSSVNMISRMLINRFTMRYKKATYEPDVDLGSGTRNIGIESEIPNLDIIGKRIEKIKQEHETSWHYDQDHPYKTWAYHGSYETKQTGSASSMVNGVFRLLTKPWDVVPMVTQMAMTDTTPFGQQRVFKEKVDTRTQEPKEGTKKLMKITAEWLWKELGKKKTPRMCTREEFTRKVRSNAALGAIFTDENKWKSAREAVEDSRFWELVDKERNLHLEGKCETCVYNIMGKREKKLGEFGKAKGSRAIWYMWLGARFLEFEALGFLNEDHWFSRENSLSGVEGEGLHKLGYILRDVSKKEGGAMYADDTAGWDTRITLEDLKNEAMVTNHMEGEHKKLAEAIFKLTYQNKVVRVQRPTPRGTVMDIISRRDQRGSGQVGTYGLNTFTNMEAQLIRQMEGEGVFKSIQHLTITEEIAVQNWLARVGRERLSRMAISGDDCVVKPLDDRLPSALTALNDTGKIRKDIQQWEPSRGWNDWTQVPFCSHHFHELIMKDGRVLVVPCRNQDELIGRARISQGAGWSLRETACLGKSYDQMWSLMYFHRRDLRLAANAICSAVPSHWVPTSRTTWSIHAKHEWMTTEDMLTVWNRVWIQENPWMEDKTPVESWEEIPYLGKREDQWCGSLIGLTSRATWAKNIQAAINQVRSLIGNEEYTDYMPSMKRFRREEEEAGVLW

By IC50 is commonly meant the concentration that inhibits the measured activity by half. In general, CC50 refers to the concentration at which the toxic effect on the cells reaches its halfway point. Usually AC50 stands for the concentration at which the activity in the assay is half-maximal. For `CC(=O)Oc1c(Br)cc(N(C(C)=O)S(=O)(=O)c2ccccc2)c2ccccc12`, the IC50 was 6.11 µM (active) in [1] and 49.8 µM (active) in [2]. For the same compound, the EC50 in [3] was 2.81 µM (active). Also, the CC50 in assay [4] was 39.8 µM (active). In assay [5], the AC50 was 3.76 µM (active).

On to `CCOC(=O)N1CCN(S(=O)(=O)c2ccc(C(=O)Nc3sc4c(c3C(=O)OC)CCN(C)C4)cc2)CC1`, for which the AC50 in [6] is 16.8 µM (active); in [7] it was 17.1 µM (active).

As to `COc1ccc(-c2nn(-c3ccccc3)cc2/C=C/C(=O)N2CCN(c3ccccn3)CC2)cc1`, the EC50 is 2.34 µM (active) in [8]; > 60 µM (not active) in assay [9]; 0.41 µM (active) in assay [10]; 3.86 µM (active) in assay [11]; 1.64 µM (active) in [12]; > 150 µM (not active) in assay [13]. In addition, the EC50 in [14] was 39.3 µM (active).

In the case of `O=C(c1ccc(CNc2c(N3CCCC3)c(=O)c2=O)cc1)N1CCC(c2ccccc2)CC1`, in assay [15], the CC50 was > 100 µM (inconclusive).

Regarding `Cc1ccc(N2C(=O)CC3(CC(c4ccccc4Cl)=NO3)C2=O)cc1` (stereo not drawn), in [16], the EC50 is > 100 µM (inactive).

Regarding `COc1ccc(-c2cc3nc(C)cc(N4CCN(C(=O)c5cccnc5)CC4)n3n2)cc1`, the EC50 in assay [17] is 10.7 µM (active); in assay [18] it was 19 µM (inactive).

Values taken from ChEMBL document CHEMBL1201862, “PubChem BioAssay data set” (2004).
